In patent US20260207570A1, “OPTIMIZED DOSING OF LERIGLITAZONE” (MINORYX THERAPEUTICS S.L., priority 2022, published 2026):
Values joined by “and” are separate entries in the source; they are usually repeats but may differ in a detail not shown here. Equal entries are not always repeated. Where two headings read alike, the source gives them in different places.

Assay: Phase 1 single ascending dose (SAD) pharmacokinetics in healthy volunteers
Type: in vivo, human
Settings: for Ka: estimated; for Vd / Tmax / Vd/F / AUC / Cmax / AUC(0-t): male, human, plasma, oral; for Vd: NCA estimate; for Vd/F: read-out: Vz/F
Description: Study design: A phase 1, randomized, double blind, placebo-controlled, single-center clinical study in 33 male healthy volunteers (HV) (19-54 years, 63.2-95.7 Kg) was conducted with leriglitazone HCl and divided in two parts: a single ascending dose (SAD) with three dose levels (30, 90 and 270 mg) in fasted conditions, followed with two dose levels (90 and 270 mg) in fed conditions; a multiple ascending dose (MAD) with a double-blind, parallel-design with two dose levels (135 and 270 mg) for 8 days and a separate cohort of subjects in an open-label parallel design with two dose levels (135 and 270 mg) including cerebrospinal fluid (CSF) collection on day 8. In the fasted conditions a fasting period of at least 4 hours was required before obtaining plasma samples. The food effect (FE) was assessed by comparing fasted with fed conditions (dosing after a high-fat breakfast per FDA definition with a calculated caloric content of 918 kcal). In the MAD part (fed) the medication was taken before a normal breakfast. Leriglitazone HCl was supplied by ChemConnection and an oral suspension of leriglitazone (20% w/v kleptose, 2% ethanol in 100 mM phosphate buffer pH=7.8) at 6 mg/ml was used in the study.
Blood, Urine and CSF sampling: In the SAD, blood samples were drawn at the following time points: pre-dose and 0.25, 0.5, 0.75, 1, 1.5, 2, 2.5, 3, 4, 5, 6, 8, 10, 12, 16, 24, 36, 48, 72, 96 and 120 hours post-dose. Urine was collected at pre-dose (within 12 hours prior to dosing) and over 0-6, 6-12, 12-24, 24-36, 36-48 hours post-dose collection intervals. In the MAD, blood samples were collected on day 1 at pre-dose and 0.25, 0.5, 0.75, 1, 1.5, 2, 2.5, 3, 4, 5, 6, 8, 10, 12, and 16 hours post-dose and at pre-dose and at 4 hours post-dose on day 2 to day 7, and on day 8 at pre-dose and 0.25, 0.5, 0.75, 1, 1.5, 2, 2.5, 3, 4, 5, 6, 8, 10, 12, 16, 24, 36, 48, 72, 96 and 120 hours post-dose. CSF were taken on day −1 and on day 8, at 4 hours post-dose.
Pharmacokinetic parameter calculation: PK parameters (Cmax, Tmax, t1/2, AUC0-t, CL/F, Vz/F, AUC0-t, RAUC, RCmax) were estimated using non-compartmental analysis (NCA) (Phoenix WinNonlin® Version 6.3).
Statistical analysis: Descriptive statistics for all relevant PK parameters: n, mean, minimum, median, maximum, geometric mean, and coefficient of variation (CV %); analysis of variance on Cmax and AUC to determine dose proportionality and food effect (FE).

CC(O)c1ccc(CCOc2ccc(CC3SC(=O)NC3=O)cc2)nc1 (stereo not drawn) [Leriglitazone, 5-[[4-[2-[5-(1-hydroxyethyl)pyridin-2-yl]ethoxy]phenyl]methyl]-1,3-thiazolidine-2,4-dione]
dose excreted in urine as free analyte (48-hour collection period): < 0.4%
dose excreted in urine as the analyte, mostly in a conjugated state (48-hour collection period): 6.5%
Ka (SAD 30 mg Fasted): 6.35 (CV: 676%) 1/h
CL/F (SAD 30 mg fasted, n = 6, geometric mean (CV %)): 0.679 (9.0) L/h
Ka (SAD 90 mg Fasted): 4.43 (CV: 222%) 1/h
Ka (SAD 90 mg Fed): 0.89 1/h and 0.89 (CV: 68%) 1/h
CL/F (SAD 90 mg fasted, n = 6, geometric mean (CV %)): 0.746 (10.1) L/h
CL/F (SAD 90 mg fed, n = 3, geometric mean (CV %)): 0.747 (6.7) L/h
Ka (SAD 270 mg Fasted): 1.92 (CV: 75%) 1/h
Ka (SAD 270 mg Fed): 0.49 (CV: 9%) 1/h
CL/F (SAD 270 mg fasted, n = 5, geometric mean (CV %)): 0.731 (16.2) L/h
CL/F (SAD 270 mg fed, n = 5, geometric mean (CV %)): 0.733 (17.8) L/h
dose proportionality of AUC (SAD 30, 90 and 270 mg): AUC increased proportionally with the dose
food effect on overall exposure (SAD fed vs fasted, food lowered Cmax and prolonged Tmax): overall exposure was not affected
leriglitazone converted to M3 (from individual phase 1 plasma PK data): up to 51%
Vd (30 mg, SAD 30 mg Fasted, per kg body weight, read-out: Vss): 0.29 L/kg
Vd (30 mg, SAD 30 mg Fasted, read-out: Vss): 23.1 L
Tmax (30 mg, SAD 30 mg fasted, n = 6, Median, read-out: Tmax): 0.63 h
Vd/F (30 mg, SAD 30 mg fasted, n = 6, geometric mean (CV %)): 23.2 L
AUC (30 mg, SAD 30 mg fasted, n = 6, geometric mean, read-out: AUC): 44.2 µg·h/mL
Cmax (30 mg, SAD 30 mg fasted, n = 6, plasma total, geometric mean (CV %), read-out: Cmax): 1700 ng/mL
AUC (30 mg, single dose 30 mg Fasted, read-out: AUC, Observed): 44.2 µg·h/mL
Cmax (30 mg, single dose 30 mg Fasted, read-out: Cmax, Observed): 1700 ng/mL
Tmax (30 mg, single dose 30 mg Fasted, read-out: Tmax, Observed): 0.63 h
Vd (90 mg, SAD 90 mg Fasted, per kg body weight, read-out: Vss): 0.31 L/kg
Vd (90 mg, SAD 90 mg Fasted, read-out: Vss): 25.2 L
Vd (90 mg, SAD 90 mg Fed, per kg body weight, read-out: Vss): 0.35 L/kg
Vd (90 mg, SAD 90 mg Fed, read-out: Vss): 28.1 L
Tmax (90 mg, SAD 90 mg fasted, n = 6, Median, read-out: Tmax): 0.88 h
AUC(0-t) (90 mg, SAD 90 mg fasted, n = 6, geometric mean): 117 µg·h/mL
Vd/F (90 mg, SAD 90 mg fasted, n = 6, geometric mean (CV %)): 26.1 L
AUC (90 mg, SAD 90 mg fasted, n = 6, geometric mean, read-out: AUC): 121 µg·h/mL
Cmax (90 mg, SAD 90 mg fasted, n = 6, plasma total, geometric mean (CV %), read-out: Cmax): 4430 ng/mL
Tmax (90 mg, SAD 90 mg fed, n = 3, Median, read-out: Tmax): 3 h
AUC(0-t) (90 mg, SAD 90 mg fed, n = 3, geometric mean): 116 µg·h/mL
Vd/F (90 mg, SAD 90 mg fed, n = 3, geometric mean (CV %)): 27.8 L
AUC (90 mg, SAD 90 mg fed, n = 3, geometric mean, read-out: AUC): 121 µg·h/mL
Cmax (90 mg, SAD 90 mg fed, n = 3, plasma total, geometric mean (CV %), read-out: Cmax): 3170 ng/mL
AUC (90 mg, single dose 90 mg Fasted, read-out: AUC, Observed): 121 µg·h/mL
Cmax (90 mg, single dose 90 mg Fasted, read-out: Cmax, Observed): 4430 ng/mL
Tmax (90 mg, single dose 90 mg Fasted, read-out: Tmax, Observed): 0.88 h
AUC (90 mg, single dose 90 mg Fed, read-out: AUC, Observed): 121 µg·h/mL
Cmax (90 mg, single dose 90 mg Fed, read-out: Cmax, Observed): 3170 ng/mL
Tmax (90 mg, single dose 90 mg Fed, read-out: Tmax, Observed): 3 h
Vd (270 mg, SAD 270 mg Fasted, per kg body weight, read-out: Vss): 0.27 L/kg
Vd (270 mg, SAD 270 mg Fasted, read-out: Vss): 22.7 L
Vd (270 mg, SAD 270 mg Fed, per kg body weight, read-out: Vss): 0.3 L/kg
Vd (270 mg, SAD 270 mg Fed, read-out: Vss): 24.4 L
Tmax (270 mg, SAD 270 mg fasted, n = 5, Median, read-out: Tmax): 1.5 h
Vd/F (270 mg, SAD 270 mg fasted, n = 5, geometric mean (CV %)): 24 L
Tmax (270 mg, SAD 270 mg fed, n = 5, Median, read-out: Tmax): 4 h
AUC(0-t) (270 mg, SAD 270 mg fed, n = 5, geometric mean): 357 µg·h/mL
Vd/F (270 mg, SAD 270 mg fed, n = 5, geometric mean (CV %)): 24.9 L
AUC (270 mg, SAD 270 mg fed, n = 5, geometric mean, read-out: AUC): 368 µg·h/mL
Cmax (270 mg, SAD 270 mg fed, n = 5, plasma total, geometric mean (CV %), read-out: Cmax): 11500 ng/mL
Vd (270 mg, SAD Fasted doses 30, 90, 270 mg, read-out: Vss, Mean): 0.29 L/kg
Vd (270 mg, SAD Fed doses 90, 270 mg, read-out: Vss, Mean): 0.32 L/kg
Tmax (270 mg, SAD fasting conditions, 30, 90 and 270 mg, read-out: Tmax, range): 0.25 to 2.5 h
Tmax (270 mg, SAD fed conditions, 90 and 270 mg, read-out: Tmax): 3 to 6 h
AUC (270 mg, single dose 270 mg Fasted, read-out: AUC, Observed): 369 µg·h/mL
